The IC50 is the concentration needed to halve the response being measured. Low readings indicate higher potency, high ones lower potency.

The source of these data is patent US6653478B2, “Substituted benzimidazol-2-ones as vasopressin receptor antagonists and neuropeptide Y modulators” (Ortho-McNeil Pharmaceutical, Inc., priority 2000, dated 2003).

The target of one test is T1, human V1b receptor (Homo sapiens, UniProt P47901).
T1 sequence (P47901 1-424): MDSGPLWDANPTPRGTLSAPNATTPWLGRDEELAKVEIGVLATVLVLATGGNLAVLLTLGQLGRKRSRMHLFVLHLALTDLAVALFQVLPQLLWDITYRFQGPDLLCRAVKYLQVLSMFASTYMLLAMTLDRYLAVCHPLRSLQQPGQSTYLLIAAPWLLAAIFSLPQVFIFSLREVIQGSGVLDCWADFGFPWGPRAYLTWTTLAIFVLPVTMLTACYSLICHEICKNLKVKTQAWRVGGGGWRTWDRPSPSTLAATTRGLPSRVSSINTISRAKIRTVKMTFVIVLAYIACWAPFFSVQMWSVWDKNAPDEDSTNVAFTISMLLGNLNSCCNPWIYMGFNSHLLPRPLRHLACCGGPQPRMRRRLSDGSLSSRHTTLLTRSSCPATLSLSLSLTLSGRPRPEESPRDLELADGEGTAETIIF
Put plainly: V1b binding assay (3H-AVP displacement, HEK-293 membranes). Also noted: expressed in transfected cells; host or cells: HEK-293 (membranes). The following applies: for inhibition at 10 µM: 10 μM compound, read-out: V1b % Inh @10; for inhibition at 1 µM: read-out: V1b@1.0, % Inh. Put shortly:
(§1)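 Membranes competed against 3H-AVP (40-87 Ci/mmol, 10,000 cpm/well) in 50 mM Tris, 5 mM MgCl2, 0.1% BSA, pH 7.5, with protease inhibitors. Incubated 1 hour at room temperature, then filtered on PEI-presoaked GF/C and scintillation counted. Non-specific binding defined with 1.25 μM AVP.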

Another test concerns the target human V1a receptor (Homo sapiens, UniProt P37288). Description: V1a binding assay (3H-AVP displacement, HEK-293 membranes). On the set-up: expressed in transfected cells; host or cells: HEK-293 (membranes). Conditions: for inhibition at 1 µM: read-out: V1a@1.0, % Inh. Put shortly:
as §1

The target in the next test is human V2 receptor (Homo sapiens, UniProt P30518). Put plainly: V2 binding assay (3H-AVP displacement, HEK-293 membranes). On the set-up: expressed in transfected cells; host or cells: HEK-293 (membranes). The following applies: 1.0 μM compound; for inhibition at 1 µM: read-out: V2@1.0, % Inh. An outline of the steps: as §1
Another test has as its target T2, NPY2 receptors (Homo sapiens, UniProt P49146).
T2 construct: Cell Membranes from KAN-TS cells having NPY2 receptors; endogenous in cells; host or cells: KAN-TS cells (membranes)
T2 sequence (P49146 1-381): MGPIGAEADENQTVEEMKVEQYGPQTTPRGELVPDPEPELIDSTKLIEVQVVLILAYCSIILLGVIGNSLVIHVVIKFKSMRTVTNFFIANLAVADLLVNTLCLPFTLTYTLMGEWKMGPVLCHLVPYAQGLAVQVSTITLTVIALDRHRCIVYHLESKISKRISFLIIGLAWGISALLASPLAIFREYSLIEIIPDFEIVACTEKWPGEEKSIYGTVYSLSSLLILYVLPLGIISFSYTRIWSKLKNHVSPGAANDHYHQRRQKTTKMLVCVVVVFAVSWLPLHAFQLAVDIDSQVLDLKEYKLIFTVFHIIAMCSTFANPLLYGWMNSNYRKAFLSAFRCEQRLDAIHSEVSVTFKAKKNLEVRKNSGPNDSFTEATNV
Description: Neuropeptide Y receptor binding assay (125I-PYY, KAN-TS cell membranes). The following applies: 10 μM compound; for inhibition at 10 µM: read-out: NPY-2@10, % Inh. Put shortly: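 Membranes from KAN-TS cells competed with 125I-PYY in binding buffer containing BSA, test compound at 10 μM final, 1 hr at room temperature. Nonspecific binding defined with 1 μM PYY final. Tubes centrifuged, washed with PBS and bound radioactivity gamma-counted.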

Sequence of human V2 receptor (P30518 whole entry): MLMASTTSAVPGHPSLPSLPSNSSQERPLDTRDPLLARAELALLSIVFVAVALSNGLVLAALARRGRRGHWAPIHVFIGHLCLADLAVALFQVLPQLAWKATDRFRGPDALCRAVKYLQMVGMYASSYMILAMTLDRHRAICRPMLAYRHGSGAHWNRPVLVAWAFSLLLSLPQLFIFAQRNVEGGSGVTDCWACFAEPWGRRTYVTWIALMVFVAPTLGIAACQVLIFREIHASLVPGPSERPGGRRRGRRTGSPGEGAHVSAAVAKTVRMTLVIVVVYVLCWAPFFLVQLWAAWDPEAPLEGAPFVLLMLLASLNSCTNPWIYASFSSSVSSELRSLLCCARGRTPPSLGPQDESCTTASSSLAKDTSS
Sequence of human V1a receptor (P37288 whole entry): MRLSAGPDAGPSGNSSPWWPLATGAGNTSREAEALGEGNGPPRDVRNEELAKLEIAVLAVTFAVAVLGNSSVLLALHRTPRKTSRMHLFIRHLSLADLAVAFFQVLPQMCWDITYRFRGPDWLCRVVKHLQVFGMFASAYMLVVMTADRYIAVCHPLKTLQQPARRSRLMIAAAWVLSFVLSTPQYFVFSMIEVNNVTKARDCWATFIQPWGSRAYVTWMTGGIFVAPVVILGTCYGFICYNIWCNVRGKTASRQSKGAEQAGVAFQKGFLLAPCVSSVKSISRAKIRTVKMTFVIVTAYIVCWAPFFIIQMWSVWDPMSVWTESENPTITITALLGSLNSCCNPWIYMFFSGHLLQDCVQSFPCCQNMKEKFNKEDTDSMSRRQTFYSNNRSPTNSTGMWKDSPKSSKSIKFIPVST

Consider `COc1ccccc1NC(=S)N1CCC(n2c(=O)n(CCCN3CCCC3)c3ccccc32)CC1` [Compound 87, 1-[(N1-Piperidinocarbothioyl-(2-methoxyphenyl)amino)-4-yl]-3-(3-pyrrolidinylpropyl)-1,3-dihydrobenzimidazol-2-one], for which the “V1b@1.0, % Inh” value at human V1b receptor (1.0 μM compound) amounted to 23%. Further, the “V1a@1.0, % Inh” value at human V1a receptor (1.0 μM compound) is given as 30%. The “V2@1.0, % Inh” value on human V2 receptor was 3%. In addition, the “NPY-2@10, % Inh” value on NPY2 receptors amounted to 13%.

Take `O=c1[nH]c2ccccc2n1C1CCN(C(=S)NC(Cc2ccccc2)c2ccccc2)CC1` (stereo not drawn) [Compound 32]: the inhibition at 10 µM on human V1b receptor came out at 4%; at NPY2 receptors, 26%. Also, the inhibition at 1 µM at human V1a receptor (1.0 μM compound) is 42%; on human V2 receptor, 9%.

In the case of `CC(Cc1ccc(Cl)cc1)NC(=S)N1CCC(n2c(=O)[nH]c3ccccc32)CC1` (stereo not drawn) [Compound 30], the inhibition at 10 µM on human V1b receptor was determined as 0%; on NPY2 receptors, 23%. Also, at human V1a receptor, the IC50 turned out to be 390 nM. The inhibition at 1 µM at human V2 receptor was 9%.

Take `CC(C)(C)OC(=O)NCCNC(=O)C(Cc1ccccc1)NC(=S)N1CCC(n2c(=O)[nH]c3ccccc32)CC1` (stereo not drawn) [Compound 46]: the inhibition at 10 µM came out at 26% at human V1b receptor and 16% on NPY2 receptors. The inhibition at 0.1 µM at human V1a receptor (0.1 μM compound, read-out: V1a % Inh @0.1) came to 8%. Besides, the inhibition at 1 µM at human V2 receptor stood at 0%.

As to `NCCCn1c(=O)n(C2CCN(C(=O)NC(c3ccccc3)c3ccccc3)CC2)c2ccccc21` [Compound 77, 1-[(N1-Piperidinocarbonyldiphenylmethylamino)-4-yl]-3-(3-aminopropyl)-1,3-dihydrobenzimidazol-2-one], the results for the inhibition at 10 µM on human V1b receptor and on NPY2 receptors were 30% and 10%, respectively. The IC50 at human V1a receptor is 79 nM. Besides, the inhibition at 1 µM on human V2 receptor was determined as 0%.

For the compound `CCN(CC)CCn1c(=O)n(C2CCN(C(=S)NC(C)c3ccc(F)cc3)CC2)c2ccccc21` (stereo not drawn) [Compound 36, 1-(N1-Piperidinocarbothioyl-(4-fluoro-[…]-methylbenzylamino)-4-yl)-3-(2-diethyaminoethyl)-1,3-dihydrobenzimidazol-2-one], the inhibition at 10 µM on human V1b receptor is 20%; on NPY2 receptors, 16%. Besides, the figures for the inhibition at 1 µM at human V1a receptor (1.0 μM compound) and on human V2 receptor were 45% and 0%, respectively.

Regarding `O=c1[nH]c2ccccc2n1C1CCN(C(=S)NCc2ccc3c(c2)OCO3)CC1` [Compound 16], the inhibition at 10 µM at human V1b receptor and on NPY2 receptors was 15% each time. Besides, the inhibition at 1 µM on human V1a receptor (1.0 μM compound) came to 40%; at human V2 receptor, 0%.

With `COC(=O)C(Cc1ccccc1)NC(=S)N1CCC(n2c(=O)n(CCCN3CCCC3)c3ccccc32)CC1` [Compound 86, 1-[(N1-Piperidinocarbothioyl-(2-phenyl-1-L-carboxymethyl)amino-4-yl)-4-yl]-3-(3-pyrrolidinylpropyl)-1,3-dihydrobenzimidazol-2-one], the results for the IC50 on human V1b receptor and at human V1a receptor were 1190 nM and 13 nM, respectively. The inhibition at 1 µM on human V2 receptor worked out at 3%. The inhibition at 10 µM at NPY2 receptors is 10%.

As to `NC(=O)CCn1c(=O)n(C2CCN(C(=S)NC(c3ccccc3)c3ccccc3)CC2)c2ccccc21` [Compound 69, 1-[(N1-piperidinocarbothioyldiphenylmethylamino)-4-yl]-3-(2-amidoethyl)-1,3-dihydro-benzimidazol-2-one], the results for the inhibition at 10 µM at human V1b receptor and at NPY2 receptors were 27% and 40%, respectively. Further, the inhibition at 1 µM at human V1a receptor (1.0 μM compound) was found to be 22%; on human V2 receptor it was 0%.

As for `O=c1[nH]c2ccccc2n1C1CCN(C(=S)NCCc2ccc([N+](=O)[O-])cc2)CC1` [Compound 31], the inhibition at 10 µM at human V1b receptor turned out to be 5%; on NPY2 receptors it was 17%. Besides, the inhibition at 1 µM on human V1a receptor (1.0 μM compound) is 19%; at human V2 receptor it was 15%.

As to `COC(=O)[C@@H](Cc1ccccc1)NC(=S)N1CCC(n2c(=O)[nH]c3ccccc32)CC1` [Compound 51], the inhibition at 10 µM was 19% at human V1b receptor and 2% at NPY2 receptors. The inhibition at 1 µM amounted to 25% at human V1a receptor (1.0 μM compound) and 1% at human V2 receptor.

For `O=c1n(Cc2ccccc2)c2ccccc2n1C1CCN(C(=S)NCCc2ccc(Cl)cc2)CC1` [Compound 39, 1-(N1-Piperidinocarbothioyl-2-(4-chlorophenyl)ethylamino-4-yl)-3-benzyl-1,3-dihydrobenzimidazol-2-one], the figures for the inhibition at 10 µM on human V1b receptor and at NPY2 receptors were 7% and 18%, respectively. The inhibition at 1 µM at human V1a receptor (1.0 μM compound) came out at 17%; at human V2 receptor it was 0%.

As for `CN1CCN(CCCn2c(=O)n(C3CCN(C(=O)NC(c4ccccc4)c4ccccc4)CC3)c3ccccc32)CC1` [Compound 100, 1-[(N1-piperidinocarbonylbiphenylmethylamino)-4-yl]-3-(3-N-(N-Methylpiperazino)propyl)-1,3-dihydrobenzimidazol-2-one], the inhibition at 1 µM on human V1b receptor (1.0 μM compound) was 36%; on human V2 receptor, 24%. Also, the 50% inhibitory concentration (IC50) on human V1a receptor was 283 nM. Further, the inhibition at 10 µM at NPY2 receptors was determined as 6%.

In the case of `Cc1ccccc1NC(=O)N1CCC(n2c(=O)n(CCCN3CCCCC3)c3ccccc32)CC1` [Compound 110, 1-[(N1-piperidinocarbonyl-2-methylphenylamino)-4-yl]-3-(3-N-piperidinylpropyl)-1,3-dihydrobenzimidazol-2-one], the inhibition at 1 µM worked out at 19% at human V1b receptor (1.0 μM compound), 41% on human V1a receptor (1.0 μM compound) and 2% at human V2 receptor. In addition, the inhibition at 10 µM at NPY2 receptors is 0%.

Turning to `CN(C)CCCn1c(=O)n(C2CCN(C(=S)NC(c3ccccc3)c3ccccc3)CC2)c2ccccc21` [Compound 71, 1-[(N1-piperidinocarbothioylbenzhydrylamino)-4-yl]-3-(3-N,N-dimethylaminopropyl)-1,3-dihydrobenzimidazol-2-one], the IC50 worked out at 870 nM at human V1b receptor and 29 nM on human V1a receptor. Further, the inhibition at 10 µM at human V1b receptor was 88%; on NPY2 receptors it was 79%. Further, the inhibition at 1 µM on human V2 receptor was 0%.

Regarding `O=c1[nH]c2ccccc2n1C1CCN(C(=S)NC2c3ccccc3-c3ccccc32)CC1` [Compound 33], the inhibition at 10 µM at human V1b receptor was determined as 9%; on NPY2 receptors it was 13%. The inhibition at 1 µM on human V1a receptor (1.0 μM compound) is 33%; at human V2 receptor it was 0%.

`O=c1n(CCCN2CCCCC2)c2ccccc2n1C1CCN(C(=S)NCC(c2ccccc2)c2ccccc2)CC1` [Compound 118, 1-[(N1-piperidinocarbothioyl-2,2-diphenylethylamino)-4-yl]-3-(3-N-piperidinylpropyl)-1,3-dihydrobenzimidazol-2-one]: the inhibition at 1 µM at human V1b receptor (1.0 μM compound) was 55%; on human V1a receptor (1.0 μM compound) it was 94%; on human V2 receptor, 21%. The inhibition at 10 µM at NPY2 receptors was found to be 52%.

With `O=c1[nH]c2ccccc2n1C1CCN(C(=S)NCc2ccc(Cl)cc2Cl)CC1` [Compound 17], the results for the inhibition at 10 µM at human V1b receptor and on NPY2 receptors were 7% and 15%, respectively. For the same compound, the inhibition at 1 µM was 12% on human V1a receptor (1.0 μM compound) and 14% on human V2 receptor.

For the compound `O=c1[nH]c2ccccc2n1C1CCN(C(=S)NCc2cccnc2)CC1` [Compound 29], the inhibition at 10 µM on human V1b receptor was determined as 0%; on NPY2 receptors it was 11%. The compound also gave a half-maximal inhibitory concentration (IC50) on human V1a receptor of 1900 nM. In addition, the inhibition at 1 µM on human V2 receptor stood at 2%.

As to `O=C(NC(=S)N1CCC(n2c(=O)[nH]c3ccccc32)CC1)c1ccccc1` [Compound 8], the inhibition at 10 µM came to 13% at human V1b receptor and 5% at NPY2 receptors. Besides, the results for the inhibition at 1 µM at human V1a receptor (1.0 μM compound) and at human V2 receptor were 55% and 10%, respectively.
